In patent US20230203043A1, “NOVEL IMIDAZOPYRAZINE DERIVATIVES” (Hoffmann-La Roche Inc., priority 2020, published 2023):
Counter-ions that a name gives are not always drawn.

test system: Acinetobacter baumannii ATCC17961; assay: Antimicrobial susceptibility testing: 90% growth inhibitory concentration (IC90) determination in Iso-Sensitest broth, OD600 growth; format: cell-based; conditions: Acinetobacter baumannii, ATCC17961, 16 h, read-out: A. baumannii ATCC 17961 IC90 (uM), strain ATCC 17961, OD600 growth over 16 h
Procedure, shortened: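 Twofold compound dilutions (e.g. 50 to 0.097 μM final) in Iso-Sensitest broth with ~5×10^(5) CFU/ml, 35±2 °C. OD600 read every 20 min over 16 h; IC90 from growth inhibition during logarithmic phase.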

Structure (SMILES) | IC90 [µM]
O=C(NC1CNC1)N1CCN(C(=O)c2ccc(Nc3nccn4c(-c5c[nH]nc5C(F)(F)F)cnc34)cc2Cl)CC1 [Example 394, N-(azetidin-3-yl)-4-[2-chloro-4-[[3-[3-(trifluoromethyl)-1H-pyrazol-4-yl]imidazo[1,2-a]pyrazin-8-yl]amino]benzoyl]piperazine-1-carboxamide formate] | 0.331
CCc1cc(Nc2nccn3c(-c4c[nH]nc4C(F)(F)F)cnc23)ccc1C(=O)NCC(=O)N1CCC(N)CC1 [Example 756, N-[2-(4-amino-1-piperidyl)-2-oxo-ethyl]-2-ethyl-4-[[3-[3-(trifluoromethyl)-1H-pyrazol-4-yl]imidazo[1,2-a]pyrazin-8-yl]amino]benzamide formate] | 0.679
CCc1cc(Nc2nccn3c(-c4c[nH]nc4C(F)(F)F)cnc23)ccc1C(=O)NC1CNC1 [Example 515, N-(azetidin-3-yl)-2-ethyl-4-((3-(3-(trifluoromethyl)-1H-pyrazol-4-yl)imidazo[1,2-a]pyrazin-8-yl)amino)benzamide formate] | 0.49
CNC(=O)c1ccc(Nc2nccn3c(-c4cn(CCN(C)C)nc4C(F)(F)F)cnc23)cc1Cl [Example 591, 2-chloro-4-((3-(1-(2-(dimethylamino)ethyl)-3-(trifluoromethyl)-1H-pyrazol-4-yl)imidazo[1,2-a]pyrazin-8-yl)amino)-N-methylbenzamide formate] | 0.483
CCc1cc(Nc2nccn3c(-c4cn(CC(F)F)nc4C(F)(F)F)cnc23)ccc1C(=O)NCCNC(=O)CCCN [Example 537, N-(2-(4-aminobutanamido)ethyl)-4-((3-(1-(2,2-difluoroethyl)-3-(trifluoromethyl)-1H-pyrazol-4-yl)imidazo[1,2-a]pyrazin-8-yl)amino)-2-ethylbenzamide formate] | 0.163
O=C(CN1CCN(C(=O)c2ccc(Nc3nccn4c(-c5cn(CC(F)F)nc5C(F)(F)F)cnc34)cc2Cl)CC1)NC1CNC1 [Example 599, N-(azetidin-3-yl)-2-(4-(2-chloro-4-((3-(1-(2,2-difluoroethyl)-3-(trifluoromethyl)-1H-pyrazol-4-yl)imidazo[1,2-a]pyrazin-8-yl)amino)benzoyl)piperazin-1-yl)acetamide formate] | 0.522
CCc1cc(Nc2nccn3c(-c4c[nH]nc4C(F)(F)F)cnc23)ccc1C(=O)NCCCNC(=O)[C@@H](C)N [Example 677, (R)-N-(3-(2-aminopropanamido)propyl)-2-ethyl-4-((3-(3-(trifluoromethyl)-1H-pyrazol-4-yl)imidazo [1,2-a]pyrazin-8-yl)amino)benzamide formate] | 0.317
C#CCn1cc(-c2cnc3c(Nc4ccc(C(=O)NCC(=O)NCCN)c(Cl)c4)nccn23)c(C(F)(F)F)n1 [Example 116, N-[2-(2-aminoethylamino)-2-oxoethyl]-2-chloro-4-[[3-[1-prop-2-ynyl-3-(trifluoromethyl)pyrazol-4-yl]imidazo[1,2-a]pyrazin-8-yl]amino]benzamide formate] | 0.22
Cc1cc(Nc2nccn3c(-c4c[nH]nc4C(F)(F)F)cnc23)ccc1C(=O)NCCCNC(=O)[C@@H]1C[C@@H](O)CN1 [Example 442, formic acid; (2S,4R)-4-hydroxy-N-[3-[[2-methyl-4-[[3-[3-(trifluoromethyl)-1H-pyrazol-4-yl]imidazo[1,2-a]pyrazin-8-yl]amino]benzoyl]amino]propyl]pyrrolidine-2-carboxamide] | 0.622
O=C(c1ccc(Nc2nccn3c(-c4cn(Cc5cccnn5)nc4C(F)(F)F)cnc23)cc1Cl)N1CCNCC1 [Example 135, [2-chloro-4-[[3-[1-(pyridazin-3-ylmethyl)-3-(trifluoromethyl)pyrazol-4-yl]imidazo[1,2-a]pyrazin-8-yl]amino]phenyl]-piperazin-1-ylmethanone formate] | 0.933

same assay, conditions: Acinetobacter baumannii, ATCC17961, 16 h, strain ATCC 17961, OD600 growth over 16 h, read-out: A. baumannii ATCC 17961 IC90

Structure (SMILES) | IC90 [µM]
C=CCNCCCNC(=O)c1ccc(Nc2nccn3c(-c4c[nH]nc4C(F)(F)F)cnc23)cc1CC [Example 196, 2-ethyl-N-[3-(prop-2-enylamino)propyl]-4-[[3-[3-(trifluoromethyl)-1H-pyrazol-4-yl]imidazo[1,2-a]pyrazin-8-yl]amino]benzamide] | 0.674
CCc1cc(Nc2nccn3c(-c4c[nH]nc4C(F)(F)F)cnc23)ccc1C(=O)NCCCNC(=O)N1CC[C@@H](N)C1 [Example 631, (R)-3-amino-N-(3-(2-ethyl-4-((3-(3-(trifluoromethyl)-1H-pyrazol-4-yl)imidazo[1,2-a]pyrazin-8-yl)amino)benzamido)propyl) pyrrolidine-1-carboxamide] | 0.209
Cc1cc(Nc2nccn3c(-c4cn(CC(F)F)nc4C(F)(F)F)cnc23)cc(F)c1C(=O)N[C@H](C)CNC(=O)[C@@H]1C[C@@H](O)CN1 [Example 744, (2S,4R)-N-((R)-2-(4-((3-(1-(2,2-difluoroethyl)-3-(trifluoromethyl)-1H-pyrazol-4-yl)imidazo[1,2-a]pyrazin-8-yl)amino)-2-fluoro-6-methylbenzamido)propyl)-4-hydroxypyrrolidine-2-carboxamide] | 0.557
C#CCn1cc(-c2cnc3c(Nc4ccc(C(=O)NC)c(CC)c4)nccn23)c(C(F)(F)F)n1 [Example 335, 2-ethyl-N-methyl-4-[[3-[1-prop-2-ynyl-3-(trifluoromethyl)pyrazol-4-yl]imidazo[1,2-a]pyrazin-8-yl]amino]benzamide] | 0.148
CCc1cc(Nc2nccn3c(-c4cn(CC#N)nc4C(F)(F)F)cnc23)ccc1C(=O)NCC#N [Example 251, N-(cyanomethyl)-4-[[3-[1-(cyanomethyl)-3-(trifluoromethyl)pyrazol-4-yl]imidazo[1,2-a]pyrazin-8-yl]amino]-2-ethylbenzamide] | 0.136
O=C(c1ccc(Nc2nccn3c(-c4c[nH]nc4C(F)(F)F)cnc23)cc1Cl)N1CCN(C(=O)[C@@H]2CCCN2)CC1 [Example 209, [2-chloro-4-[[3-[3-(trifluoromethyl)-1H-pyrazol-4-yl]imidazo[1,2-a]pyrazin-8-yl]amino]phenyl]-[4-[(2S)-pyrrolidine-2-carbonyl]piperazin-1-yl]methanone] | 0.105
CCc1cc(Nc2nccn3c(-c4c[nH]nc4C(F)(F)F)cnc23)ccc1C(=O)NCCCNC(=O)[C@@H](C)NC(=O)C(F)(F)F [Example 748, (R)-2-ethyl-N-(3-(2-(2,2,2-trifluoroacetamido)propanamido)propyl)-4-((3-(3-(trifluoromethyl)-1H-pyrazol-4-yl)imidazo[1,2-a]pyrazin-8-yl)amino) benzamide] | 0.608
N#CCn1cc(-c2cnc3c(Nc4ccc(C(=O)N5CCN(C(=O)[C@H]6[C@@H]7CNC[C@@H]76)CC5)c(Cl)c4)nccn23)c(C(F)(F)F)n1 [Example 481, 2-(4-(8-((4-(4-((1R,5S,6r)-3-azabicyclo[3.1.0]hexane-6-carbonyl)piperazine-1-carbonyl)-3-chlorophenyl)amino)imidazo[1,2-a]pyrazin-3-yl)-3-(trifluoromethyl)-1H-pyrazol-1-yl)acetonitrile formate] | 0.117
CCc1cc(Nc2nccn3c(-c4cn(CCF)nc4C(F)F)cnc23)ccc1C(=O)N1CCN(C(=O)[C@H](C)N)CC1 [Example 779, (S)-2-amino-1-(4-(4-((3-(3-(difluoromethyl)-1-(2-fluoroethyl)-1H-pyrazol-4-yl)imidazo[1,2-a]pyrazin-8-yl)amino)-2-ethylbenzoyl)piperazin-1-yl)propan-1-one] | 1.03
